Test results as given in US8563603B2, “Polycyclic compounds and methods related thereto” (Cornell University, priority 2008, dated 2013).

Legend:
[1] = test system: cell line MD-MBA-231; assay: Cell cycle analysis by DNA content (hypotonic PI staining, flow cytometry); format: cell-based, human; conditions: for % events in sub G0 (apoptotic events) / effect on cell populations in S-phase, significance / effect on cell population in G2/M / singlet count: 1.2, 6.0, 30.0 ppm; for % events in sub G0 (apoptotic events) / effect on cell populations in S-phase, significance / % of cells in S-phase / effect on cell population in G2/M / singlet count: 24 h
Experimental: Twenty-four hours after exposure to compounds, 25×10^4 cells in 1.5 ml cells were simply re-suspended following either the Annexin V/FITC assay or the trypsin procedures. Cells were centrifuged at 1000-x g at room temperature and washed in 0.5 ml of hypotonic staining solution. Cells were kept a minimum of 30 min. at 4° C. in the dark. Samples were usually analyzed by flow cytometry on the same day or at 24 hrs. Resulting DNA distributions were analyzed for the proportion of cells in apoptosis and in G0/G1, S, and G2/M phases of the cell cycle. Singlet events were gated and 10,000-20,000 events were acquired within the gated region. All experiments were repeated at least three times, each in duplicate.
The cell cycle comprises steps that regulate the correct temporal sequence of events that control the growth, reproduction and differentiation of cells. The cell cycle consists of 4 phases: G0/G1, S (DNA synthesis), G2, and M (mitosis). In addition, checkpoints located in the cell cycle transition ensure that cell growth and division occur in response to appropriate signals and environment. When proliferating, if cells are subjected to DNA damage the cell cycle temporarily pauses either at G1, S or G2 phase. Arrest at these checkpoints prevents DNA replication and mitosis in the presence of unrepaired DNA damage and presumably allows time for DNA repair to occur. The proportion of cells that arrest in G1, S or G2 after damage depends on cell type, growth conditions, type of damage and the checkpoints operative in the cells. Shifts in the redistribution of phases of the cell cycle in response to various stimuli can be readily assessed by flow cytometry. DNA content analysis with the use of PI is one of the most common assays. The use of intercalating dyes to measure DNA content are the most common and are usually sufficient to determine relative shifts in the phases of the cell cycle. The hypotonic solution lyses the plasma membrane and prevents many of the aggregate problems associated with fixed cells. Propidium Iodide(PI) passes through permeabilized cell membranes and intercalates with cellular DNA. Therefore, the intensity of the PI signal is directly proportional to DNA content. DNA content experiments determine the percent induction of apoptosis and relative distribution of the cell cycle phases.
The percent of apoptotic cells (cells with fractional DNA content; sub G1 cells) were established by estimating the percentage of events showing up in sub G0. The Sub-G1 method relies on the fact that after DNA fragmentation, there are small fragments of DNA that may be eluted. However in order to be seen in the Sub G1 area, a cell must have lost enough DNA to appear there; so if cells enter apoptosis from the S or G2/M phase of the cell cycle or if there is an aneuploid population undergoing apoptosis, they may not appear in the Sub G1 peak. The number of events in sub G1 (number of nuclear fragments) provides no information on the # of cells undergoing apoptosis.

[2] = test system: human breast cancer cell line MD-MBA-231; assay: Bioactivity-guided percent apoptosis, Annexin V/Propidium iodide FACS, 48-h incubation; format: cell-based; design: key: % of cells (Annexin V/PI FACS); conditions: Table E5; Dose 100
Experimental: Apoptosis was evaluated against human breast cancer cell line MD-MBA-231. Cells were maintained in RPMI 1640 medium (PAA Laboratories GmbH, Teddington Middlesex, UK) supplemented with 10% heat-inactivated tetracycline-free fetal calf serum (PAA Laboratories) and 2 mM L-glutamine, 100 units/ml penicillin, and 100 μg/ml streptomycin (Gibco, Grand Island, N.Y.). Cells were propagated and cultured at 37° C. in a 100% relative humidified atmosphere consisting of 5% C02 and 95% air. Cells were trypsinized with 0.05% Trypsin-0.2% EDTA (w/v) solution.
The bioactivity-guided isolation of the compounds was performed using percent apoptosis in human breast cancer cells (cell line MD-MBA-231) as the reporter. Cells were seeded in a standard 24-well microtiter plate at a density of 1.5×10^4 cells/well in […] tissue culture medium. After a 24-h incubation period cells were treated with individual fractions from the wood of Guaiacum officinale L. Test compounds were mixed in solution using DMSO as vehicle (10 μg extract/1 ml DMSO), at 30 μl. Following a 48-h incubation period, the induction of apoptosis in cell cultures was analyzed by fluorescence-activated cell sorter (FACS Caliber Becton Dickinson, San Jose, Calif.), double staining with Annexin V/Propidium iodide.
Three fractions were chosen for further evaluation based on their apoptotic activity, yields, and simplicity of their HPLC profiles. Fraction 5 was obtained by combining F5 and F6, and fraction 13 by combining fractions 13 and 14. Fraction 8 was not combined with any other. Combinations were based on TLC profiles, (FIG. 17). The percent apoptosis was calculated by using Annexin V/FITC staining and flow cytometry (Table E4).

[3] = test system: Human breast cancer cell line MB-MDA-231; assay: Annexin V FITC / PI apoptosis detection by flow cytometry, 24 h; format: cell-based; conditions: 24 h; for early stage apoptosis, FITC (+)/PI (−) staining, significance: 1.2, 6.0, 30.0 ppm
Experimental: Human breast cancer cell line MB-MDA-231 were cultured in Dulbecco's Modified Eagle's medium (DMEM-Sigma, D-5648), supplemented with 10% (heat-inactivated) Fetal Bovine Serum (Atlanta Biologicals, Inc.) and Antibiotic Solution, 100× (Sigma A-9909). Cells were gown at 37° C., at 5-7% CO2, and 95% humidity and were obtained from the American Type Culture Collection (ATCC). Cells were trypsinized with 0.05% Trypsin-0.2% EDTA (w/v) solution (Invitrogen Corporation, Carlsbad, Calif.).
The induction of apoptosis in MB-MDA-231 was analyzed using a well-validated Annexin V FITC apoptosis detection kit (Calbiochem), Darzynkiewicz, 1998. The phosphatidylserine (PS)-specific dye Annexin-V is used to detect apoptotic-specific changes to the organization of phospholipids leading to exposure of PS on the cell surface that precedes nuclear breakdown, DNA fragmentation, and the appearance of most apoptosis-associated molecules. For these studies cells were seeded at 25×10^4 cells/1.5 ml in a 24 well microtiter plate. Cells were allowed to adhere to plates for 24 h, and then exposed to lignans of the present invention at 5-fold dilutions of 30 μl, 6 μl, and 1.2 μl per well for 24 h. Test compounds were mixed in solution using DMSO as vehicle (10 mg extract/1 ml DMSO). Camptothecin was used as a positive control. Following the incubation period 700 μl of suspended cells were transferred to 15 ml conical tubes. Cells that remained adhered to the 24-well plates were gently washed with PBS (137 mM NaCl, 2.7 mM KCL, 4.3 mM Na2HPO4-7H2O, 1.4 mM KH2PO4, adjusted to pH 7.4), trypsinized with 1 ml of solution (0.05% Trypsin—0.2% EDTA [w/v]), and resuspended with the suspended cells/media collected in the 15 ml conical tubes from the previous step. 10 μl of media-binding reagent and 1.25 μl Annexin V-FITC was added to the 15 ml conical tubes containing both the 700 μl of suspended cells and the resuspended cells and incubated at room temperature for 15 min, at 18-24° C., in the dark. Tubes were centrifuged for 5 minutes at 1000×g at room temperature. Media was removed and cells were gently resuspended in 0.5 ml cold 1×binding buffer (dilution; 5× Binding Buffer concentrate 1:5 with dH2O) and placed on ice. 10 μl of propidium iodide was added to each tube. Cells were placed on ice away from light and analyzed immediately by flow cytometry. The dual fluorescence emissions of the respective dyes were detected in cell preparations on a BD-Biosciences FACS Aria high-speed flow cytometer/cell sorter utilizing a quartz cuvette for interrogation. To quantify the Annexin V (FL1 at 518 nm) and propidium iodide (620 nm) signals, apoptosis-induced cells (CPT) stained with FITC only and apoptosis-induced cells (CPT) labeled with only propidium iodide were utilized. Necessary adjustments were made to minimize overlap between these two measurements. Typically, 10,000-20,000 cells were scored for each sample and classified as either viable, early apoptotic, or late apoptotic or necrotic. All experiments were repeated at least three times, each in duplicate.
The principal of the Annexin V/FITC assay is that, Annexin V, an anticoagulant protein, preferentially binds negatively charged phospholipids. Early in the apoptotic process, phospholipid asymmetry is disrupted leading to the exposure of phosphatidylserine (PS) on the outer leaflet of the cytoplasmic membrane. Annexin V binds to the negatively charged calcium-dependent PS. Conjugating FITC to Annexin V with simultaneous propidium iodide (PI) staining allows bivariate analysis of intact cells. Live, healthy cells are double negative, FITC (−)/PI (−), and are seen in the lower left quadrant [A3] of FACS cytograms. Cells that are FITC (+)/PI (−) [A4] are early apoptotic. Cell populations that are advanced apoptotic or necrotic are FITC (+)/PI (+) are located in quadrant [A2]. […]

SMILES	% events in sub G0 (apoptotic events) [1]	effect on cell populations in S-phase, significance [1]	% of cells in S-phase ([1]; 30 ppm) [%]	Apoptosis [2]	Necrosis [2]	late stage apoptotic cell death count, FITC (+)/PI (+) ([3]; highest concentration) [%]	effect on cell population in G2/M [1]	singlet count [1]	early stage apoptosis, FITC (+)/PI (−) staining, significance [3]	early apoptosis surpassing that induced by camptothecin ([3]; 30 ppm) [%]	% of cells in S-phase ([1]; 1.2 ppm) [%]	% of cells in S-phase ([1]; 6.0 ppm) [%]	early apoptosis surpassing that induced by camptothecin ([3]; 6.0 ppm) [%]	increase in % events at G2/M over isonectandrin B and nectandrin B ([1]; highest treatment)	increase in % events at G2/M over untreated cells ([1]; highest treatment) [%]
C=C1[C@@H](c2ccc(O)c(OC)c2)O[C@@H](c2ccc(O)c(OC)c2)[C@@]12CCC1=C(C2)[C@@H](c2ccc(O)c(OC)c2)O[C@H]1c1ccc(O)c(OC)c1 [I-a]	strong apoptotic activity at 6.0 ppm, but then declined somewhat at 30 ppm	progressive decrease in % S-phase events with increasing drug concentration	< 3	90.12	0.82	–	–	–	–	–	–	–	–	–	–
C=C1[C@@H](c2ccc(O)c(OC)c2)O[C@@H](c2ccc(O)c(OC)c2)[C@]12CCC1=C(C2)[C@@H](c2ccc(O)c(OC)c2)O[C@H]1c1ccc(O)c(OC)c1 [I-b]	significance at 6 and 30 ppm	significant decrease in cell populations at the two highest doses	4.5	81.37	0.41	63	–	–	–	–	–	–	–	–	–
COc1cc([C@H]2O[C@@H](c3ccc(O)c(OC)c3)[C@H](C)[C@@H]2C)ccc1O [I-c]	increased and significantly induced apoptotic activity at 30.0 ppm	inhibited cells from entering this stage as well in a concentration-dependent manner	–	92.9	1.81	–	significant reduction of cells at 6 and 30 ppm	reached minimal levels at 30 ppm	significantly increased	10	–	–	–	–	–
COc1cc([C@H]2O[C@@H](c3ccc(O)c(OC)c3)[C@@H](C)[C@H]2C)ccc1O [I-d]	increased and significantly induced apoptotic activity at 30.0 ppm	significantly inhibited cell populations in S-phase at all doses	0	91.14	0.35	–	lowest accumulation at 30 ppm	significance decreases at all doses	significantly increased	24	8.2	4.7	10	–	–
COc1cc([C@H]2O[C@H](c3ccc(O)c(OC)c3)[C@@H](C)[C@H]2C)ccc1O [I-e]	without showing increased number of events in sub G0	significance at the highest concentration	–	–	–	–	significant blockage in G2/M at 30 ppm	approximately equal level of cell death as shown with untreated cells	did not show any significant increases	–	–	–	–	approximately 3 fold	8
COc1cc(C[C@@H](C)[C@@H](C)Cc2ccc(O)c(OC)c2)ccc1O [I-f]	no significant increases	did so at 30 ppm	6	–	–	–	–	–	–	–	–	–	–	–	–
